Measured values reported in PMC12503276, “A novel TRPV5/6-like channel from a scleractinian coral” (PLOS One, 2025).

What was measured:
PdTRPV5/6-like = target: T1, PdTRPV5/6-like (Pocillopora damicornis, UniProt Z9K305B7A5); experiment: outside-out patch clamp, HEK293; assay type: cell-based
T1 construct: full-length ORF, 724 residues, cloned from aquarium coral cDNA into pcDNA3.1, HEK293 transient expression; EGFP on separate plasmid; tetramer
T1 sequence (Z9K305B7A5 1-724): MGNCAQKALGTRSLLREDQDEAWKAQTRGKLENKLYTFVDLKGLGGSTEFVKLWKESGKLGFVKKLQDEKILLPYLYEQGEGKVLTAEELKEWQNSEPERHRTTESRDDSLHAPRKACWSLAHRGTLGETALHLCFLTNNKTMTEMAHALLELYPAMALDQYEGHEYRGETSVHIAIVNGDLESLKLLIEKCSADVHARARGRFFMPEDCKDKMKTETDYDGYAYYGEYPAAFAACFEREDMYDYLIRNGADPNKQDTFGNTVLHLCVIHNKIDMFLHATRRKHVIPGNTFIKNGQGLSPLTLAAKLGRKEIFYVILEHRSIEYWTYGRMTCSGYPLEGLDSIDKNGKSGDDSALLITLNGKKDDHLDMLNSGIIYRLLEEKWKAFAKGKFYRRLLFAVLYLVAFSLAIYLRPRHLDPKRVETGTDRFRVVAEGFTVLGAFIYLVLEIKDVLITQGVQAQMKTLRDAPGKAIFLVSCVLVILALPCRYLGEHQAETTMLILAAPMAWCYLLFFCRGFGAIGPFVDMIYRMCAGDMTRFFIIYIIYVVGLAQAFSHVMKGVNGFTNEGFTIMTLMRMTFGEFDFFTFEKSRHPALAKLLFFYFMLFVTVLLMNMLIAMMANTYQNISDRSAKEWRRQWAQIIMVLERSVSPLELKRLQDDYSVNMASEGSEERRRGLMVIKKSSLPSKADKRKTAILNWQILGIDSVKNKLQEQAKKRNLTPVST

hTRPV5 = target: T2, hTRPV5 (Homo sapiens, UniProt Q9NQA5); experiment: outside-out patch clamp, HEK293; assay type: cell-based
T2 construct: gene TRPV5; EGFP on separate plasmid; tetramer
T2 sequence (Q9NQA5 whole entry): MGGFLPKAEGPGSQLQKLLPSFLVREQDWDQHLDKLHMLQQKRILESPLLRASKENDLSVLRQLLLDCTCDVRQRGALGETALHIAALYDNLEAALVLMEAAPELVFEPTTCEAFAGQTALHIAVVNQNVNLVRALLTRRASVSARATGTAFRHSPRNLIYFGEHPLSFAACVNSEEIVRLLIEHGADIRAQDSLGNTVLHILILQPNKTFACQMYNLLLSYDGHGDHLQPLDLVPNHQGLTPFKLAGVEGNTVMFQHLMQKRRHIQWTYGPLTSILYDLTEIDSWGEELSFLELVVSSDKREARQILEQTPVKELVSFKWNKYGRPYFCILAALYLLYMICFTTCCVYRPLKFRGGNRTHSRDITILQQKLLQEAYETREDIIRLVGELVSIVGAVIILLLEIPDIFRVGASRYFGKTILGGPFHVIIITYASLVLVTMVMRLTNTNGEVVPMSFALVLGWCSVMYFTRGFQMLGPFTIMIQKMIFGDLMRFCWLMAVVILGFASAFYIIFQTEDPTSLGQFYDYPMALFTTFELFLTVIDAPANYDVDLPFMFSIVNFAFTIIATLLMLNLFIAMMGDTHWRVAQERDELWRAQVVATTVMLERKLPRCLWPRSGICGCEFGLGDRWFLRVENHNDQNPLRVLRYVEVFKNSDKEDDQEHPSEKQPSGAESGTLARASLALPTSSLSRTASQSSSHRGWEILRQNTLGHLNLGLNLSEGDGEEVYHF

Row | Compound | IC50 (PdTRPV5/6-like) [µM] | IC50 (hTRPV5) [µM]
1 | CC(C)[C@@H]1CC[C@@H](C)C[C@H]1O [(-)-menthol] | 120 | –
2 | Clc1ccc(COC(Cn2ccnc2)c2ccc(Cl)cc2Cl)c(Cl)c1 (centres unmarked) [miconazole] | – | 0.0512
